The record followed here is US8487102B2, “Pyrrazolopyridine compounds as dual NK1/NK3 receptor antagonists” (Hoffmann-La Roche Inc., priority 2010, dated 2013).

For orientation: Ki means the dissociation constant of the complex between target and ligand, obtained from inhibition or displacement.

Test [1] deals with T1, Recombinant human NK3 (hNK3) receptor (Homo sapiens, UniProt P29371).
T1 construct: expressed in transfected cells; membrane preparations of the recombinant receptor
T1 sequence (P29371 1-465): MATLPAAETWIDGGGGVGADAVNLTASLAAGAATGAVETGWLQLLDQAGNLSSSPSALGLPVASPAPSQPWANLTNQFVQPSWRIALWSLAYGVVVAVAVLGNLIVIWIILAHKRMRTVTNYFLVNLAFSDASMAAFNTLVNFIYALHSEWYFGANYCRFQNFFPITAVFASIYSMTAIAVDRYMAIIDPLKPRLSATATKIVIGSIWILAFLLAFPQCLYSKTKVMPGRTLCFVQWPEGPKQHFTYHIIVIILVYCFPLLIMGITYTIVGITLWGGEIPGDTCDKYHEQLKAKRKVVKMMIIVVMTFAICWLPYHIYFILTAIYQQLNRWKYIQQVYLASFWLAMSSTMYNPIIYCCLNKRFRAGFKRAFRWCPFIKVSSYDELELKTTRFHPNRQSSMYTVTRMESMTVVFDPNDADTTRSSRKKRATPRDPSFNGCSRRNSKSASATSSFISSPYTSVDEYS
In words: NK3 receptor binding assay, [3H]SR142801 displacement. The following applies: hNK3 receptor membranes, [3H]SR142801 0.3 nM. As for the experimental part: Recombinant human NK3 (hNK3) receptor affinity was determined in a 96 well plate assay, using [^3H]SR142801 (final concentration 0.3 nM) to radiolabel the hNK3 receptor in the presence of 10 concentrations of competing compound or buffer. Non specific binding was determined using 10 μM SB222200. Assay buffer consisted of Tris-HCl (50 mM, pH 7.4), BSA (0.1%), MnCl2 (4 mM) and phosphoramidon (1 μM). Membrane preparations of hNK3 receptors (approximately 2.5 μg/well in a 96 well plate) were used to initiate the incubation for 90 min at room temperature. This assay was terminated by rapid filtration under vacuum through GF/C filters, presoaked for 90 min with PEI (0.3%), with 3×0.5 ml washes of ice-cold Tris buffer (50 mM, pH 7.4) containing 0.1% BSA. The radioactivity retained on the filters was measured by scintillation counting. All assays were performed in duplicate in at least two separate experiments.

The target of another test is T2, human NK1 receptor (Homo sapiens, UniProt P25103).
T2 construct: expressed in transfected cells; host or cells: CHO cells (Semliki virus expression system), membrane suspension
T2 sequence (P25103 whole entry): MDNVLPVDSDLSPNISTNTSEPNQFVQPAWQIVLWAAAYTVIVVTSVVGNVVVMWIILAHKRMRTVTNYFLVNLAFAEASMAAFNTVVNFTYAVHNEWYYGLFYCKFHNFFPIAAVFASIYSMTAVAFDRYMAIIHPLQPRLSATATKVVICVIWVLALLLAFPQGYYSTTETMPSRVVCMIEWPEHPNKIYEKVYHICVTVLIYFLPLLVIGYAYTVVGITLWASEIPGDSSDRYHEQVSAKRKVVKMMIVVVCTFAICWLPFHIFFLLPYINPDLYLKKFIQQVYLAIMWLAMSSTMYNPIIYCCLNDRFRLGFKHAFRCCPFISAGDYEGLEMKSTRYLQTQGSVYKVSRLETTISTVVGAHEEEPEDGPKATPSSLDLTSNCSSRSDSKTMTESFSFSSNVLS
Nature of the test: NK1 receptor binding assay, [3H]substance P displacement. The following applies: human NK1 receptors in CHO cells, [3H]substance P 0.6 nM.

With `CCn1ncc2c(-c3ccccc3C)c(N(C)C(=O)C(C)(C)c3cc(C(F)(F)F)cc(C(F)(F)F)c3)cnc21` [Example 1, 2-(3,5-Bis-trifluoromethyl-phenyl)-N-(1-ethyl-4-o-tolyl-1H-pyrazolo[3,4-b]pyridin-5-yl)-N-methyl-isobutyramide], the inhibition constant (Ki) was 32.7 nM in test [1] and 1.2 nM at human NK1 receptor.
For `CCn1ncc2c(-c3ccc(F)cc3C)c(N(C)C(=O)C(C)(C)c3cc(C(F)(F)F)cc(C(F)(F)F)c3)cnc21` [Example 2, 2-(3,5-Bis-trifluoromethyl-phenyl)-N-[1-ethyl-4-(4-fluoro-2-methyl-phenyl)-1H-pyrazolo[3,4-b]pyridin-5-yl]-N-methyl-isobutyramide], the results for the inhibitory constant (Ki) (in test [1]; on human NK1 receptor) were 25.7 nM and 1.1 nM, respectively.
Taken in the same sequence, the figures for `CCn1ncc2c(-c3ccccc3Cl)c(N(C)C(=O)C(C)(C)c3cc(C(F)(F)F)cc(C(F)(F)F)c3)cnc21` [Example 3, 2-(3,5-Bis-trifluoromethyl-phenyl)-N-[4-(2-chloro-phenyl)-1-ethyl-1H-pyrazolo[3,4-b]pyridin-5-yl]-N-methyl-isobutyramide] were 22.9 nM and 0.6 nM.
For `CCn1ncc2c(-c3ccc(Cl)c(Cl)c3)c(N(C)C(=O)C(C)(C)c3cc(C(F)(F)F)cc(C(F)(F)F)c3)cnc21` [Example 4, 2-(3,5-Bis-trifluoromethyl-phenyl)-N-[4-(3,4-dichloro-phenyl)-1-ethyl-1H-pyrazolo[3,4-b]pyridin-5-yl]-N-methyl-isobutyramide], in that order: 86.8 nM and 0.4 nM.
For `CCn1ncc2c(-c3ccc(F)cc3C)c(NC(=O)C(C)(C)c3cc(C(F)(F)F)cc(C(F)(F)F)c3)cnc21` [Example 5, 2-(3,5-Bis-trifluoromethyl-phenyl)-N-[1-ethyl-4-(4-fluoro-2-methyl-phenyl)-1H-pyrazolo[3,4-b]pyridin-5-yl]-isobutyramide], in that order: 200 nM and 6 nM.
On to `Cc1cc(F)ccc1-c1c(N(C)C(=O)C(C)(C)c2cc(C(F)(F)F)cc(C(F)(F)F)c2)cnc2c1cnn2CC(F)F` [Example 6, 2-(3,5-Bis-trifluoromethyl-phenyl)-N-[1-(2,2-difluoro-ethyl)-4-(4-fluoro-2-methyl-phenyl)-1H-pyrazolo[3,4-b]pyridin-5-yl]-N-methyl-isobutyramide], for which the inhibition constant Ki in test [1] came out at 6.8 nM; on human NK1 receptor, 0.9 nM.
With `Cc1cc(F)ccc1-c1c(N(C)C(=O)C(C)(C)c2cc(C(F)(F)F)cc(C(F)(F)F)c2)cnc2c1cnn2C` [Example 7, 2-(3,5-Bis-trifluoromethyl-phenyl)-N-[4-(4-fluoro-2-methyl-phenyl)-1-methyl-1H-pyrazolo[3,4-b]pyridin-5-yl]-N-methyl-isobutyramide], the figures for the Ki (in test [1]; on human NK1 receptor) were 18.9 nM and 0.8 nM, respectively.
For `CCn1ncc2c(-c3ccc(F)cc3F)c(N(C)C(=O)C(C)(C)c3cc(C(F)(F)F)cc(C(F)(F)F)c3)cnc21` [Example 8, 2-(3,5-Bis-trifluoromethyl-phenyl)-N-[4-(2,4-difluoro-phenyl)-1-ethyl-1H-pyrazolo[3,4-b]pyridin-5-yl]-N-methyl-isobutyramide], in that order: 483 nM and 1.7 nM.
Turning to `CCn1ncc2c(-c3cccc(F)c3F)c(N(C)C(=O)C(C)(C)c3cc(C(F)(F)F)cc(C(F)(F)F)c3)cnc21` [Example 9, 22-(3,5-Bis-trifluoromethyl-phenyl)-N-[4-(2,3-difluoro-phenyl)-1-ethyl-1H-pyrazolo[3,4-b]pyridin-5-yl]-N-methyl-isobutyramide], the values for the inhibitory constant (Ki) (in test [1]; at human NK1 receptor) were 779 nM and 10.2 nM, respectively.
Consider `CCn1ncc2c(-c3ccccc3)c(N(C)C(=O)C(C)(C)c3cc(C(F)(F)F)cc(C(F)(F)F)c3)cnc21` [Example 10, 2-(3,5-Bis-trifluoromethyl-phenyl)-N-(1-ethyl-4-phenyl-1H-pyrazolo[3,4-b]pyridin-5-yl)-N-methyl-isobutyramide], for which the Ki in test [1] amounted to 532 nM; on human NK1 receptor, 2.5 nM.
Taken in the same sequence, the figures for `Cc1cc(F)ccc1-c1c(N(C)C(=O)C(C)(C)c2cc(C(F)(F)F)cc(C(F)(F)F)c2)cnc2c1cnn2Cc1ccccc1` [Example 11, N-[1-Benzyl-4-(4-fluoro-2-methyl-phenyl)-1H-pyrazolo[3,4-b]pyridin-5-yl]-2-(3,5-bis-trifluoromethyl-phenyl)-N-methyl-isobutyramide] were 77 nM and 1.3 nM.
Consider `CCn1ncc2c(-c3ccc(F)cc3OC)c(N(C)C(=O)C(C)(C)c3cc(C(F)(F)F)cc(C(F)(F)F)c3)cnc21` [Example 12, 2-(3,5-Bis-trifluoromethyl-phenyl)-N-[1-ethyl-4-(4-fluoro-2-methoxy-phenyl)-1H-pyrazolo[3,4-b]pyridin-5-yl]-N-methyl-isobutyramide], for which the values for the inhibitory constant (Ki) (in test [1]; at human NK1 receptor) were 41.4 nM and 0.7 nM, respectively.
Taken in the same sequence, the figures for `CCn1ncc2c(-c3cc(F)ccc3C)c(N(C)C(=O)C(C)(C)c3cc(C(F)(F)F)cc(C(F)(F)F)c3)cnc21` [Example 13, 2-(3,5-Bis-trifluoromethyl-phenyl)-N-[1-ethyl-4-(5-fluoro-2-methyl-phenyl)-1H-pyrazolo[3,4-b]pyridin-5-yl]-N-methyl-isobutyramide] were 160 nM and 7.9 nM.
For `CCn1ncc2c(-c3cccc(F)c3Cl)c(N(C)C(=O)C(C)(C)c3cc(C(F)(F)F)cc(C(F)(F)F)c3)cnc21` [Example 14, 2-(3,5-Bis-trifluoromethyl-phenyl)-N-[4-(2-chloro-3-fluoro-phenyl)-1-ethyl-1H-pyrazolo[3,4-b]pyridin-5-yl]-N-methyl-isobutyramide], in that order: 38.7 nM and 1.6 nM.
For `CCn1ncc2c(-c3ccccc3OC)c(N(C)C(=O)C(C)(C)c3cc(C(F)(F)F)cc(C(F)(F)F)c3)cnc21` [Example 15, 2-(3,5-Bis-trifluoromethyl-phenyl)-N-[1-ethyl-4-(2-methoxy-phenyl)-1H-pyrazolo[3,4-b]pyridin-5-yl]-N-methyl-isobutyramide], in that order: 208 nM and 0.7 nM.
For the molecule `CCn1ncc2c(-c3ccc(OC)cc3C)c(N(C)C(=O)C(C)(C)c3cc(C(F)(F)F)cc(C(F)(F)F)c3)cnc21` [Example 16, 2-(3,5-Bis-trifluoromethyl-phenyl)-N-[1-ethyl-4-(4-methoxy-2-methyl-phenyl)-1H-pyrazolo[3,4-b]pyridin-5-yl]-N-methyl-isobutyramide], the Ki in test [1] turned out to be 373 nM; at human NK1 receptor, 8.6 nM.
In the case of `CCn1ncc2c(-c3cccc(Cl)c3)c(N(C)C(=O)C(C)(C)c3cc(C(F)(F)F)cc(C(F)(F)F)c3)cnc21` [Example 17, 2-(3,5-Bis-trifluoromethyl-phenyl)-N-[4-(3-chloro-phenyl)-1-ethyl-1H-pyrazolo[3,4-b]pyridin-5-yl]-N-methyl-isobutyramide], the Ki in test [1] is 355 nM; on human NK1 receptor, 4.2 nM.
`CCn1ncc2c(-c3cccc(Cl)c3Cl)c(N(C)C(=O)C(C)(C)c3cc(C(F)(F)F)cc(C(F)(F)F)c3)cnc21` [Example 18, 2-(3,5-Bis-trifluoromethyl-phenyl)-N-[4-(2,3-dichloro-phenyl)-1-ethyl-1H-pyrazolo[3,4-b]pyridin-5-yl]-N-methyl-isobutyramide]: the Ki in test [1] came to 45.3 nM.
`CCn1ncc2c(-c3cccnc3C)c(N(C)C(=O)C(C)(C)c3cc(C(F)(F)F)cc(C(F)(F)F)c3)cnc21` [Example 25, 2-(3,5-Bis-trifluoromethyl-phenyl)-N-[1-ethyl-4-(2-methyl-pyridin-3-yl)-1H-pyrazolo[3,4-b]pyridin-5-yl]-N-methyl-isobutyramide] showed a Ki on human NK1 receptor of 522 nM.
`Cc1cc(F)ccc1-c1c(N(C)C(=O)C(C)(C)c2cc(C(F)(F)F)cc(C(F)(F)F)c2)cnc2c1cnn2CC(=O)N1CCCC1` [Example 34, 2-(3,5-Bis-trifluoromethyl-phenyl)-N-[4-(4-fluoro-2-methyl-phenyl)-1-(2-oxo-2-pyrrolidin-1-yl-ethyl)-1H-pyrazolo[3,4-b]pyridin-5-yl]-N-methyl-isobutyramide]: the inhibitory constant (Ki) in test [1] worked out at 39.5 nM.
Still for that read-out and setting: for `Cc1cc(F)ccc1-c1c(N(C)C(=O)C(C)(C)c2cc(C(F)(F)F)cc(C(F)(F)F)c2)cnc2c1cnn2CC(=O)N(C)C` [Example 35, 2-(3,5-Bis-trifluoromethyl-phenyl)-N-[1-dimethylcarbamoylmethyl-4-(4-fluoro-2-methyl-phenyl)-1H-pyrazolo[3,4-b]pyridin-5-yl]-N-methyl-isobutyramide] the value was 93.9 nM.
